Results taken from US5527703A (Merck & Co., Inc., priority 1994, dated 1996).
pEC50: −log10 of the molar value.

Molecular target: T1, GluCl α&β (Caenorhabditis elegans, UniProt G5EBR3+Q17328)
T1 construct: the full-length open reading frame of the GluCl cDNA encoding the GluClα (52,550 kDa) and GluClβ (49,900kDa) subunits; expressed in transfected cells; host or cells: Xenopus laevis oocytes injected with in vitro RNA
T1 sequence (G5EBR3 21-461): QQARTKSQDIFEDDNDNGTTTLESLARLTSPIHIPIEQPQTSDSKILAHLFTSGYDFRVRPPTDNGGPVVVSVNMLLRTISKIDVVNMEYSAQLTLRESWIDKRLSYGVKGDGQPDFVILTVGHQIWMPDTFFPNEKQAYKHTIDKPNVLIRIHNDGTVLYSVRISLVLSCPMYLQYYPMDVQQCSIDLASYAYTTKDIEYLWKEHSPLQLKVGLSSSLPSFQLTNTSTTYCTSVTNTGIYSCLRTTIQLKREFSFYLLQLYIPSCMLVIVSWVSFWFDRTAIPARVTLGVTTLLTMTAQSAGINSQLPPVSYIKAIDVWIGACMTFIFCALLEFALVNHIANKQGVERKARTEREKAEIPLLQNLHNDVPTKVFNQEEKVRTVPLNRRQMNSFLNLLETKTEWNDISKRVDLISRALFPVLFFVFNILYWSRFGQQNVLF
T1 sequence (Q17328 23-434): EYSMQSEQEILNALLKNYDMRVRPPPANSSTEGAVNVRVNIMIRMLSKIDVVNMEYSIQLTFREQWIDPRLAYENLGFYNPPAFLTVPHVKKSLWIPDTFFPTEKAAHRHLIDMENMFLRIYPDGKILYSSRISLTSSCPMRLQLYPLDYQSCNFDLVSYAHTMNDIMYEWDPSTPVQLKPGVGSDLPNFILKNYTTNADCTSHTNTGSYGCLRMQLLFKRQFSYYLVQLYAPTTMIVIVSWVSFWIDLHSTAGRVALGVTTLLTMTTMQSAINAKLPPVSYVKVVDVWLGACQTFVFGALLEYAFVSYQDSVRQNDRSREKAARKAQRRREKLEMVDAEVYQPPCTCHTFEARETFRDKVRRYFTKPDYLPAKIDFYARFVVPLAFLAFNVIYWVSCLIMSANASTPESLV
Assay: Agonist activation of current in Xenopus oocytes injected with GluClα and GluClβ RNA (two-microelectrode voltage clamp)
Type: cell-based, C. elegans
Conditions: for type of drug-sensitive current: GluCl α&β oocytes; for voltage dependence of current: I/V
Experimental: Xenopus laevis oocytes were prepared and injected using standard methods previously described and known in the art [Arena, J. P., Liu. K. K., Paress, P. S. & Cully. D. F. Mol. Pharmacol. 40, 368-374 (1991 ); Arena, J. P., Liu, K. K., Paress, P. S., Schaeffer, J. M. & Cully, D. F. Mol. Brain Res. 15, 339-348 (1992)]. Adult female Xenopus laevis were anesthetized with 0.17% tricaine methanesulfonate and the ovaries were surgically removed and placed in a dish consisting of (mM): NaCl 1 82.5, KCl 2. MgCl2 1, CaCl2 1.8, HEPES 5 adjusted to pH 7.5 with NaOH (OR-2). Ovarian lobes were broken open, rinsed several times, and gently shaken in OR-2 containing 0.2% collagenase (Sigma, Type 1A) for 2-5 hours. When approximately 50% of the follicular layers were removed, Stage V and VI oocytes were selected and placed in media consisting of (mM): NaCl 86, KCl 2, MgCl2 1, CaCl2 1.8, HEPES 5, Na pyruvate 2.5, theophylline 0.5, gentamicin 0.1 adjusted to pH 7.5 with NaOH (ND-96) for 24-48 hours before injection. Oocytes were injected with 50-70 nl of poly(A^+) RNA (1 mg/ml) or 50 nl of GluClα (0.1-100 ng) and/or GluClβ (0.1-100 ng). Control oocytes were injected with 50 nl of water. Oocytes were incubated for 2-10 days in ND-96 before recording. Incubations and collagenase digestion were carried out at 18° C.
Recordings were made at room temperature 2-10 days after injection. Unless otherwise indicated recordings were made in standard frog saline consisting of (mM): NaCl 115, KCl 2, MgCl2 1, CaCl2 1.8, HEPES 10 adjusted to pH 7.5 with NaOH. Oocytes were voltage-clamped using a standard two microelectrode amplifier (Dagan 8500 or TEV-200, Minneapolis,Minn.). Pipettes were filled with 3M KCl and had resistances between 0.5-3.0 M.OMEGA.. A plexiglass recording chamber (volume 200 μl) was constantly perfused at a rate of 10 ml/min. The recording chamber was connected to ground with a Ag/AgCl electrode directly, or through a 3M KCl agar bridge when extracellular chloride was varied. For low chloride solutions NaCl was replaced with equimolar concentrations of sodium isethionic acid. For low sodium solutions NaCl was replaced with equimolar KCl or choline Cl. Data were acquired and analyzed using PCLAMP with a TL-1 interface (Axon Instruments, Foster City, Calif.). Membrane current at a holding potential of -80 mV was recorded. The amplitude of drug-sensitive current was determined by subtracting the holding current at -80 mV from the peak current obtained in the presence of drug. Data were filtered at 30 Hz and sampled at 16.6 Hz. Current/voltage relationships (I/V) and reversal potentials (Erev) were determined using a 1-3 sec voltage ramp over the voltage range of -110 to +80 mV. For the ramps, data were filtered at 0.3-3 kHz and sampled at 160 Hz. Current in drug free solution was subtracted from current in the presence of drug to obtain drug-sensitive current/voltage relationships.
Electrophysiological properties were examined in oocytes injected with in vitro RNA from pGluClα and pGluClβ (FIG. 5).
Several ligand-gated ion channel agonists and antagonists were tested on oocytes injected with GluCl α&β (Table 1). […] 255, 449-464 (1976); Arena, J. P., Liu, K. K., Paress, P. S., Schaeffer, J. M. & Cully, D. F. Mol. Brain Res. 15, 339-348 (1992); Lea, T. J. & Usherwood, P. N. R. Comp. Gen. Pharmacol. 4, 351-363 (1973)].

Compound | activation of current / sensitivity of coexpressed GluCl α&β | glutamate concentrations at which desensitization of the glutamate-sensitive current was observed (GluCl α&β injected oocytes) | type of drug-sensitive current | Hill coefficient (glutamate) (GluCl α&β, no IVMPO4) | voltage dependence of current (GluCl α&β) | Hill coefficient (IVMPO4) (GluCl α&β) | time for maximal activation of IVMPO4-sensitive current (GluCl α&β) [s] | pEC50 (GluCl α&β, read-out: EC50 for IVMPO4 activation of current) | % of Glutamate 10 mM (agonist 1 μM, -80 mV, % of response elicited with 10 mM glutamate) [%]
N[C@@H](CCC(=O)O)C(=O)O [glutamate] | direct activation of current | greater than 1 mM | rapidly activating reversible | 1.7 | outwardly rectifying |  |  |  | 
ivermectin-4-O-phosphate [IVMPO4] | direct activation of current |  | irreversible |  | outwardly rectifying | 2.5 | 42 ± 2 | 6.72 | 117 ± 13
